Experimental data as given in US20260242419A1, “A CYCLIC PEPTIDE FOR TRAPPING INTERLEUKIN-1 BETA” (Merck Sharp & Dohme LLC, priority 2023, published 2026).
Starred links: 1 amine or outer side, 2 acyl side, 3 side chain; linkers in the order of their positions; H or OH if unused. Non-standard residues stand in square brackets, D forms with d. Residues, ends and D or L forms follow the SMILES beside them. Phe(4-(cis-4-COOH-cHex)) = N[C@@H](Cc1ccc([C@H]2CC[C@@H](C(=O)O)CC2)cc1)C(=O)O; dPro(4R-(4-pyridylmethyl)) = O=C(O)[C@H]1C[C@@H](Cc2ccncc2)CN1; Trp(βS-Me,4-F) = C[C@@H](c1c[nH]c2cccc(F)c12)[C@H](N)C(=O)O; 3Aminoazetidine3carboxyl = O=C(C1(N[*:1])CN([*:3])C1)[*:2]; Bip(4'-CONH2) = NC(=O)c1ccc(-c2ccc(C[C@H](N)C(=O)O)cc2)cc1; Bip(4'-COOH) = N[C@@H](Cc1ccc(-c2ccc(C(=O)O)cc2)cc1)C(=O)O; X8 = O=C([C@H]1[C@@H](Cc2ccc(-c3ccccn3)cc2)CCN1[*:1])[*:2]; Ala(1-bicyclo(1.1.1)pentyl) = N[C@@H](CC12CC(C1)C2)C(=O)O; dPro(4R-Bzl(4-F)) = O=C(O)[C@H]1C[C@@H](Cc2ccc(F)cc2)CN1; dPro(3S-(4-F-Bn)) = O=C(O)[C@@H]1NCC[C@@H]1Cc1ccc(F)cc1; X4 = O=C([C@H]1[C@@H](Cc2ccncc2)CCN1[*:1])[*:2]; Ala(morpholin-4-yl) = N[C@@H](CN1CCOCC1)C(=O)O; Ala(pyrimidin-5-yl) = N[C@@H](Cc1cncnc1)C(=O)O; Phe(4-COOH) = N[C@@H](Cc1ccc(C(=O)O)cc1)C(=O)O; Nva(5,5,5-F3) = N[C@@H](CCC(F)(F)F)C(=O)O; Pro(cis-4-F) = O=C(O)[C@@H]1C[C@H](F)CN1; X23 = O=C([C@H](Cc1ncccn1)N[*:1])[*:2]; Ala(4-THP) = N[C@@H](CC1CCOCC1)C(=O)O; X6 = O=C([C@H](Cc1ccncn1)N[*:1])[*:2]; AEF = NCCOc1ccc(C[C@H](N)C(=O)O)cc1; d(αMeD) = C[C@@](N)(CC(=O)O)C(=O)O; 4Pal = N[C@@H](Cc1ccncc1)C(=O)O; αMeD = C[C@](N)(CC(=O)O)C(=O)O; d(αMeS) = C[C@@](N)(CO)C(=O)O; αMeK = C[C@](N)(CCCCN)C(=O)O; Dab = NCC[C@H](N)C(=O)O; Aib = CC(C)(N)C(=O)O

biological target: T1, IL-1β (Homo sapiens, UniProt P01584); test: IL-6 assay in MRC5 cells: inhibition of IL-1β induced IL-6 secretion (AlphaLISA); format: cell-based; settings: inhibition of IL-1β induced IL-6 secretion in MRC5 cells; compound pre-incubated 1 hour with recombinant human IL-1β; read-out: MRC5 IC50
T1 construct: purchased BioLegend 579404
T1 sequence (P01584 117-269): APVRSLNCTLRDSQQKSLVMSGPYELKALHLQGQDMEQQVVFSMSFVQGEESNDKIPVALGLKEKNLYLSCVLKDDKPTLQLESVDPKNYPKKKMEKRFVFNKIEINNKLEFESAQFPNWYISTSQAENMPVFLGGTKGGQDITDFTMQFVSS
Method in brief: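 Compound was pre-incubated 1 h at ambient temperature with recombinant human IL-1β at 2λ EC80 before adding human lung fibroblast MRC5 cells (3000/well) in EMEM with 0.025% BSA. After overnight culture at 37 °C, 5% CO2, secreted IL-6 in conditioned medium was measured by AlphaLISA; IC50 from 4-parameter logistic fits.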

IC50 [pM] | Structure (SMILES)
22 | C[C@@H](c1c[nH]c2cccc(F)c12)[C@@H]1NC(=O)[C@@H]2C[C@H](F)CN2C(=O)CNC(=O)[C@H](Cc2ccc(C(=O)O)cc2)NC(=O)[C@H](Cc2ccncc2)NC(=O)[C@H](Cc2ccc(-c3ccc(C(=O)O)cc3)cc2)NC(=O)[C@H]2[C@@H](Cc3ccncc3)CCN2C(=O)CNC(=O)[C@H](CCN)NC(=O)[C@H](CCC(N)=O)NC(=O)[C@H](CCC(F)(F)F)NC(=O)[C@@](C)(CC(=O)O)NC(=O)[C@H](Cc2c[nH]c3ccccc23)NC(=O)[C@H](CO)NC(=O)C(C)(C)NC1=O [Example 232] (cyclo([Bip(4'-COOH)][4Pal][Phe(4-COOH)]G[Pro(cis-4-F)][Trp(βS-Me,4-F)][Aib]SW[d(αMeD)][Nva(5,5,5-F3)]Q[Dab]G[X4]))
13 | C[C@@H](c1c[nH]c2cccc(F)c12)[C@@H]1NC(=O)[C@@H]2C[C@H](F)CN2C(=O)CNC(=O)[C@H](Cc2ccc(C(=O)O)cc2)NC(=O)[C@H](CC23CC(C2)C3)NC(=O)[C@H](Cc2ccc(-c3ccc(C(=O)O)cc3)cc2)NC(=O)[C@H]2C[C@@H](Cc3ccncc3)CN2C(=O)CNC(=O)[C@H](CCN)NC(=O)[C@H](CCC(N)=O)NC(=O)[C@H](Cc2ccncn2)NC(=O)[C@@](C)(CC(=O)O)NC(=O)[C@H](Cc2c[nH]c3ccccc23)NC(=O)[C@H](CO)NC(=O)C(C)(C)NC1=O [Example 285] (cyclo([Bip(4'-COOH)][Ala(1-bicyclo(1.1.1)pentyl)][Phe(4-COOH)]G[Pro(cis-4-F)][Trp(βS-Me,4-F)][Aib]SW[d(αMeD)][X6]Q[Dab]G[dPro(4R-(4-pyridylmethyl))]))

same assay, conditions: inhibition of IL-1β induced IL-6 secretion in MRC5 cells; read-out: MRC5 IC50

IC50 [pM] | Structure (SMILES)
18 | C[C@@H](c1c[nH]c2cccc(F)c12)[C@@H]1NC(=O)[C@@H]2C[C@H](F)CN2C(=O)CNC(=O)[C@H](Cc2ccc(C(=O)O)cc2)NC(=O)[C@H](Cc2ccncc2)NC(=O)[C@H](Cc2ccc(-c3ccc(C(=O)O)cc3)cc2)NC(=O)[C@H]2C[C@@H](Cc3ccc(F)cc3)CN2C(=O)CNC(=O)[C@H](CCN)NC(=O)[C@H](CCC(N)=O)NC(=O)[C@H](Cc2ncccn2)NC(=O)C(C)(C)NC(=O)[C@H](Cc2c[nH]c3ccccc23)NC(=O)[C@H](CCC(=O)O)NC(=O)C(C)(C)NC1=O [Example 113] (cyclo([Bip(4'-COOH)][4Pal][Phe(4-COOH)]G[Pro(cis-4-F)][Trp(βS-Me,4-F)][Aib]EW[Aib][X23]Q[Dab]G[dPro(4R-Bzl(4-F))]))
37 | C[C@@H](c1c[nH]c2cccc(F)c12)[C@@H]1NC(=O)[C@@H]2C[C@H](F)CN2C(=O)CNC(=O)[C@H](Cc2ccc(C(=O)O)cc2)NC(=O)[C@H](CC23CC(C2)C3)NC(=O)[C@H](Cc2ccc(-c3ccc(C(=O)O)cc3)cc2)NC(=O)[C@H]2C[C@@H](Cc3ccc(F)cc3)CN2C(=O)CNC(=O)[C@H](CO)NC(=O)[C@H](CCC(N)=O)NC(=O)[C@H](CN2CCOCC2)NC(=O)[C@](C)(CCCCN)NC(=O)[C@H](Cc2c[nH]c3ccccc23)NC(=O)[C@H](CO)NC(=O)C(C)(C)NC1=O [Example 173] (cyclo([Bip(4'-COOH)][Ala(1-bicyclo(1.1.1)pentyl)][Phe(4-COOH)]G[Pro(cis-4-F)][Trp(βS-Me,4-F)][Aib]SW[αMeK][Ala(morpholin-4-yl)]QSG[dPro(4R-Bzl(4-F))]))
17 | CC(=O)NCCOc1ccc(C[C@@H]2NC(=O)[C@H]3C[C@@H](Cc4ccncc4)CN3C(=O)CNC(=O)[C@H](CCN)NC(=O)[C@H](CCC(N)=O)NC(=O)[C@H](CC3CCOCC3)NC(=O)[C@@](C)(CC(=O)O)NC(=O)[C@H](Cc3c[nH]c4ccccc34)NC(=O)[C@H](CO)NC(=O)C(C)(C)NC(=O)[C@H]([C@@H](C)c3c[nH]c4cccc(F)c34)NC(=O)[C@@H]3C[C@H](F)CN3C(=O)CNC(=O)[C@H](Cc3ccc(C(=O)O)cc3)NC(=O)[C@H](CC34CC(C3)C4)NC2=O)cc1 [Example 374] (cyclo([AEF](Ac)[Ala(1-bicyclo(1.1.1)pentyl)][Phe(4-COOH)]G[Pro(cis-4-F)][Trp(βS-Me,4-F)][Aib]SW[d(αMeD)][Ala(4-THP)]Q[Dab]G[dPro(4R-(4-pyridylmethyl))]))
11 | C[C@@H](c1c[nH]c2cccc(F)c12)[C@@H]1NC(=O)[C@@H]2C[C@H](F)CN2C(=O)CNC(=O)[C@H](Cc2ccc(C(=O)O)cc2)NC(=O)[C@H](Cc2ccncc2)NC(=O)[C@H](Cc2ccc(-c3ccc(C(=O)O)cc3)cc2)NC(=O)[C@H]2C[C@@H](Cc3ccc(F)cc3)CN2C(=O)CNC(=O)[C@H](CCN)NC(=O)[C@H](CCC(N)=O)NC(=O)[C@H](Cc2cncnc2)NC(=O)[C@](C)(CC(=O)O)NC(=O)[C@H](Cc2c[nH]c3ccccc23)NC(=O)[C@H](CO)NC(=O)C(C)(C)NC1=O [Example 141] (cyclo([Bip(4'-COOH)][4Pal][Phe(4-COOH)]G[Pro(cis-4-F)][Trp(βS-Me,4-F)][Aib]SW[αMeD][Ala(pyrimidin-5-yl)]Q[Dab]G[dPro(4R-Bzl(4-F))]))
22 | C[C@@H](c1c[nH]c2cccc(F)c12)[C@@H]1NC(=O)[C@@H]2C[C@H](F)CN2C(=O)CNC(=O)[C@H](Cc2ccc(C(=O)O)cc2)NC(=O)[C@H](Cc2ccncc2)NC(=O)[C@H](Cc2ccc(-c3ccc(C(=O)O)cc3)cc2)NC(=O)[C@H]2[C@@H](Cc3ccc(-c4ccccn4)cc3)CCN2C(=O)CNC(=O)[C@H](CCN)NC(=O)[C@H](CCC(N)=O)NC(=O)[C@H](Cc2cncnc2)NC(=O)C(C)(C)NC(=O)[C@H](Cc2c[nH]c3ccccc23)NC(=O)[C@H](CCC(=O)O)NC(=O)C(C)(C)NC1=O [Example 61] (cyclo([Bip(4'-COOH)][4Pal][Phe(4-COOH)]G[Pro(cis-4-F)][Trp(βS-Me,4-F)][Aib]EW[Aib][Ala(pyrimidin-5-yl)]Q[Dab]G[X8]))
24 | C[C@@H](c1c[nH]c2cccc(F)c12)[C@@H]1NC(=O)[C@@H]2C[C@H](F)CN2C(=O)CNC(=O)[C@H](Cc2ccc(C(=O)O)cc2)NC(=O)[C@H](Cc2ccncc2)NC(=O)[C@H](Cc2ccc(-c3ccc(C(N)=O)cc3)cc2)NC(=O)[C@H]2C[C@@H](Cc3ccncc3)CN2C(=O)CNC(=O)[C@H](CCN)NC(=O)[C@H](CCC(N)=O)NC(=O)[C@H](Cc2cncnc2)NC(=O)[C@@](C)(CO)NC(=O)[C@H](Cc2c[nH]c3ccccc23)NC(=O)[C@H](CO)NC(=O)C(C)(C)NC1=O [Example 339] (cyclo([Bip(4'-CONH2)][4Pal][Phe(4-COOH)]G[Pro(cis-4-F)][Trp(βS-Me,4-F)][Aib]SW[d(αMeS)][Ala(pyrimidin-5-yl)]Q[Dab]G[dPro(4R-(4-pyridylmethyl))]))
15 | C[C@@H](c1c[nH]c2cccc(F)c12)[C@@H]1NC(=O)[C@@H]2C[C@H](F)CN2C(=O)CNC(=O)[C@H](Cc2ccc(C(=O)O)cc2)NC(=O)[C@H](Cc2ccncc2)NC(=O)[C@H](Cc2ccc(-c3ccc(C(=O)O)cc3)cc2)NC(=O)[C@H]2C[C@@H](Cc3ccncc3)CN2C(=O)CNC(=O)[C@H](CCN)NC(=O)[C@H](CCC(N)=O)NC(=O)[C@H](CC2CCOCC2)NC(=O)[C@@](C)(CO)NC(=O)[C@H](Cc2c[nH]c3ccccc23)NC(=O)[C@H](CO)NC(=O)C(C)(C)NC1=O [Example 364] (cyclo([Bip(4'-COOH)][4Pal][Phe(4-COOH)]G[Pro(cis-4-F)][Trp(βS-Me,4-F)][Aib]SW[d(αMeS)][Ala(4-THP)]Q[Dab]G[dPro(4R-(4-pyridylmethyl))]))
22 | C[C@@H](c1c[nH]c2cccc(F)c12)[C@@H]1NC(=O)[C@@H]2C[C@H](F)CN2C(=O)CNC(=O)[C@H](Cc2ccc(C(=O)O)cc2)NC(=O)[C@H](CC23CC(C2)C3)NC(=O)[C@H](Cc2ccc([C@H]3CC[C@@H](C(=O)O)CC3)cc2)NC(=O)[C@H]2C[C@@H](Cc3ccncc3)CN2C(=O)CNC(=O)[C@H](CCN)NC(=O)[C@H](CCC(N)=O)NC(=O)[C@H](Cc2cncnc2)NC(=O)[C@@](C)(CC(=O)O)NC(=O)[C@H](Cc2c[nH]c3ccccc23)NC(=O)[C@H](CO)NC(=O)C(C)(C)NC1=O [Example 335] (cyclo([Phe(4-(cis-4-COOH-cHex))][Ala(1-bicyclo(1.1.1)pentyl)][Phe(4-COOH)]G[Pro(cis-4-F)][Trp(βS-Me,4-F)][Aib]SW[d(αMeD)][Ala(pyrimidin-5-yl)]Q[Dab]G[dPro(4R-(4-pyridylmethyl))]))
30 | C[C@@H](c1c[nH]c2cccc(F)c12)[C@@H]1NC(=O)[C@@H]2C[C@H](F)CN2C(=O)CNC(=O)[C@H](Cc2ccc(C(=O)O)cc2)NC(=O)[C@H](Cc2ccncc2)NC(=O)[C@H](Cc2ccc([C@H]3CC[C@@H](C(=O)O)CC3)cc2)NC(=O)[C@H]2C[C@@H](Cc3ccc(F)cc3)CN2C(=O)CNC(=O)[C@H](CCN)NC(=O)[C@H](CCC(N)=O)NC(=O)[C@H](Cc2cncnc2)NC(=O)C2(CNC2)NC(=O)[C@H](Cc2c[nH]c3ccccc23)NC(=O)[C@H](CCC(=O)O)NC(=O)C(C)(C)NC1=O [Example 69] (cyclo([Phe(4-(cis-4-COOH-cHex))][4Pal][Phe(4-COOH)]G[Pro(cis-4-F)][Trp(βS-Me,4-F)][Aib]EW[3Aminoazetidine3carboxyl][Ala(pyrimidin-5-yl)]Q[Dab]G[dPro(4R-Bzl(4-F))]))
14 | CC(=O)NCCOc1ccc(C[C@@H]2NC(=O)[C@H]3[C@@H](Cc4ccc(F)cc4)CCN3C(=O)CNC(=O)[C@H](CCN)NC(=O)[C@H](CCC(N)=O)NC(=O)[C@H](CC3CCOCC3)NC(=O)[C@@](C)(CO)NC(=O)[C@H](Cc3c[nH]c4ccccc34)NC(=O)[C@H](CO)NC(=O)C(C)(C)NC(=O)[C@H]([C@@H](C)c3c[nH]c4cccc(F)c34)NC(=O)[C@@H]3C[C@H](F)CN3C(=O)CNC(=O)[C@H](Cc3ccc(C(=O)O)cc3)NC(=O)[C@H](CC34CC(C3)C4)NC2=O)cc1 [Example 371] (cyclo([AEF](Ac)[Ala(1-bicyclo(1.1.1)pentyl)][Phe(4-COOH)]G[Pro(cis-4-F)][Trp(βS-Me,4-F)][Aib]SW[d(αMeS)][Ala(4-THP)]Q[Dab]G[dPro(3S-(4-F-Bn))]))
